Measured values as given in ChEMBL document CHEMBL1201862, “PubChem BioAssay data set” (2004).
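48-hour exposure; five concentrations; linearly interpolated endpoints. GI50 = concentration required for 50% inhibition of growth.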 The source made the active and inactive calls. No stated cut-off is given here; in the data, active = GI50 up to about 1.1 µM and inactive = higher.

Legend:
Assay in all cases: NCI-60 cell line screen, 48 h
MCF7 = tested on: MCF7
ACHN = tested on: ACHN
SNB-75 = tested on: SNB-75
K562 = tested on: K562
OVCAR-3 = tested on: OVCAR-3
COLO 205 = tested on: COLO 205
MDA-MB-231 = tested on: MDA-MB-231
786-0 = tested on: 786-0
SK-MEL-28 = tested on: SK-MEL-28
HOP-62 = tested on: HOP-62
SW-620 = tested on: SW-620
HL-60 = tested on: HL-60
HT-29 = tested on: HT-29
OVCAR-8 = tested on: OVCAR-8
A549 = tested on: A549
SR = tested on: SR
RXF 393 = tested on: RXF 393
MDA-MB-435 = tested on: MDA-MB-435

## CC1CN=C(N(C(=O)Nc2ccc(F)c(Cl)c2)c2ccccc2)S1 (stereo not given)
MCF7
  GI50: 10.4 µM (inactive)
ACHN
  GI50: 25.5 µM (inactive)
SNB-75
  GI50: 23.2 µM (inactive)
K562
  GI50: 27 µM (inactive)
OVCAR-3
  GI50: 34.5 µM (inactive)
COLO 205
  GI50: 19.3 µM (inactive)
MDA-MB-231
  GI50: 17.7 µM (inactive)
786-0
  GI50: 22.9 µM (inactive)
SK-MEL-28
  GI50: 15.1 µM (inactive)
HOP-62
  GI50: 27.6 µM (inactive)
SW-620
  GI50: 27.5 µM (inactive)
HL-60
  GI50: > 10 µM (inactive)
HT-29
  GI50: 22.9 µM (inactive)
OVCAR-8
  GI50: 23.9 µM (inactive)
A549
  GI50: 24.2 µM (inactive)
SR
  GI50: > 10 µM (inactive)

## COc1ccc(-c2nc3c(nc2-c2ccc(OC)cc2)C(N)=NS(=O)(=O)N3)cc1
ACHN
  GI50: > 100 µM (inactive)
SNB-75
  GI50: > 100 µM (inactive)
K562
  GI50: > 100 µM (inactive)
RXF 393
  GI50: > 100 µM (inactive)
OVCAR-3
  GI50: > 100 µM (inactive)
COLO 205
  GI50: > 100 µM (inactive)
786-0
  GI50: > 100 µM (inactive)
SK-MEL-28
  GI50: > 100 µM (inactive)
HOP-62
  GI50: > 100 µM (inactive)
SW-620
  GI50: > 100 µM (inactive)
HL-60
  GI50: > 100 µM (inactive)
HT-29
  GI50: > 100 µM (inactive)
OVCAR-8
  GI50: > 100 µM (inactive)
A549
  GI50: > 100 µM (inactive)

## O=C(/C=C/c1ccc(O)c(O)c1)OCc1ccccc1 [BENZYL CAFFEATE]
MCF7
  GI50: 7.8 µM (inactive)
ACHN
  GI50: 11.8 µM (inactive)
K562
  GI50: 9.84 µM (inactive)
RXF 393
  GI50: 16.8 µM (inactive)
MDA-MB-435
  GI50: 6.27 µM (inactive)
OVCAR-3
  GI50: 11 µM (inactive)
COLO 205
  GI50: 22.4 µM (inactive)
MDA-MB-231
  GI50: 21.6 µM (inactive)
786-0
  GI50: 14.7 µM (inactive)
SK-MEL-28
  GI50: 6.37 µM (inactive)
HOP-62
  GI50: 25.6 µM (inactive)
SW-620
  GI50: 17.4 µM (inactive)
HL-60
  GI50: 0.938 µM (active)
HT-29
  GI50: 32.3 µM (inactive)
A549
  GI50: 19.2 µM (inactive)
SR
  GI50: 3.74 µM (inactive)

## C#CN1C(=O)c2c(c(-c3ccccc3)c(-c3ccc(Oc4ccc(-c5c(-c6ccccc6)c6c(c(-c7ccccc7)c5-c5ccccc5)C(=O)N(C#C)C6=O)cc4)cc3)c(-c3ccccc3)c2-c2ccccc2)C1=O
ACHN
  GI50: > 100 µM (inactive)
SNB-75
  GI50: > 100 µM (inactive)
K562
  GI50: > 100 µM (inactive)
RXF 393
  GI50: 30.8 µM (inactive)
OVCAR-3
  GI50: > 100 µM (inactive)
COLO 205
  GI50: > 100 µM (inactive)
786-0
  GI50: > 100 µM (inactive)
SK-MEL-28
  GI50: > 100 µM (inactive)
HOP-62
  GI50: > 100 µM (inactive)
SW-620
  GI50: > 100 µM (inactive)
HL-60
  GI50: > 100 µM (inactive)
HT-29
  GI50: > 100 µM (inactive)
OVCAR-8
  GI50: > 100 µM (inactive)
A549
  GI50: > 100 µM (inactive)

## O=C(/C=C1/Nc2ccc([N+](=O)[O-])cc2NC1O)c1cccc([N+](=O)[O-])c1 (stereo not given)
ACHN
  GI50: 66.5 µM (inactive)
SNB-75
  GI50: 46.3 µM (inactive)
K562
  GI50: 30.3 µM (inactive)
RXF 393
  GI50: 23.6 µM (inactive)
OVCAR-3
  GI50: 35.6 µM (inactive)
COLO 205
  GI50: 12.1 µM (inactive)
786-0
  GI50: 14 µM (inactive)
SK-MEL-28
  GI50: 39.8 µM (inactive)
HOP-62
  GI50: 83.9 µM (inactive)
SW-620
  GI50: 72.1 µM (inactive)
HL-60
  GI50: 32.8 µM (inactive)
HT-29
  GI50: 56.2 µM (inactive)
OVCAR-8
  GI50: 19.1 µM (inactive)
A549
  GI50: 58.7 µM (inactive)
SR
  GI50: > 100 µM (inactive)

## COc1ccc(/C(=N\NC(=N)N)C(c2ccc(OC)cc2)C2OC(=O)c3ccccc32)cc1 (stereo not given)
ACHN
  GI50: > 100 µM (inactive)
SNB-75
  GI50: 67.5 µM (inactive)
K562
  GI50: > 100 µM (inactive)
RXF 393
  GI50: > 100 µM (inactive)
OVCAR-3
  GI50: > 100 µM (inactive)
COLO 205
  GI50: > 100 µM (inactive)
786-0
  GI50: > 100 µM (inactive)
SK-MEL-28
  GI50: > 100 µM (inactive)
HOP-62
  GI50: > 100 µM (inactive)
SW-620
  GI50: > 100 µM (inactive)
HL-60
  GI50: > 100 µM (inactive)
HT-29
  GI50: > 100 µM (inactive)
OVCAR-8
  GI50: > 100 µM (inactive)
A549
  GI50: > 100 µM (inactive)
SR
  GI50: > 100 µM (inactive)

## COc1cc(C=O)c(-c2cc3c(cc2C2(C)OCCS2)OCO3)c(OC)c1OC (stereo not given)
ACHN
  GI50: 18.5 µM (inactive)
SNB-75
  GI50: 7.89 µM (inactive)
K562
  GI50: 8.83 µM (inactive)
RXF 393
  GI50: 7.38 µM (inactive)
OVCAR-3
  GI50: 5.14 µM (inactive)
COLO 205
  GI50: 4.24 µM (inactive)
786-0
  GI50: 7.4 µM (inactive)
SK-MEL-28
  GI50: 4.4 µM (inactive)
HOP-62
  GI50: 15.5 µM (inactive)
SW-620
  GI50: 7.94 µM (inactive)
HL-60
  GI50: 8.07 µM (inactive)
HT-29
  GI50: 6.68 µM (inactive)
OVCAR-8
  GI50: 19.1 µM (inactive)
A549
  GI50: 8.71 µM (inactive)
SR
  GI50: 14.1 µM (inactive)
